Data published in patent publication US20100168228A1, “NOVEL CHEMOTHERAPEUTIC AGENTS AGAINST INFLAMMATION AND CANCER” (RELIANCE LIFE SCIENCES PVT. LTD., priority 2006, published 2010).

Key:
Type in all cases: cell-based, human
Jurkat cells = assay: PARP cleavage assay using flow cytometry, Jurkat
Protocol: FIG. 8: CAMVE potentiates apoptosis induced by TNF or chemotherapeutic agents. A1. Jurkat cells were incubated at 37° C. with TNF, in the presence and absence of 10 μM of CAMVE for 72 h and the viable cells were assayed using MTT reagent. The results are shown as the mean±S.D. from triplicate culture. A2. Jurkat cells (1×10^6 cells/ml) were pretreated with CAMVE for 3 h as indicated and incubated with TNF for 24 hrs, and PARP cleavage was determined by FACS analysis as described in the “Materials and Methods”. […]
FIG. 15: Induction of apoptosis and PARP cleavage by compound 27. Jurkat cells were treated with 100 and 500 nM of the compound for indicated time period and PARP cleavage was determined using FACS analysis as described in the “Materials and Methods”. […]
Extent of PARP cleavage is determined using polyclonal antibody specifically recognizing the 85 kDa fragment of cleaved PARP (NSB 699 Novus Biologicals) and can be used as a marker for detecting apoptotic cells. […] Cells were washed twice with wash buffer (PBS+1% heat inactivated FBS) and analysed using FACS.
PARP Cleavage Assay using Flow Cytometry: Extent of PARP cleavage is determined using polyclonal antibody specifically recognizing the 85 kDa fragment of cleaved PARP (NSB 699 Novus Biologicals) and can be used as a marker for detecting apoptotic cells. […]

caspase 3 = assay: Caspase 3 activity assay, Jurkat lysates; conditions: 16 and 24 h exposure
Protocol: FIG. 14: Induction of Caspase 3 by compound 27. Jurkat cells were treated with indicated concentrations of the compound for 16 and 24 h and harvested in lysis buffer. Cellular lysates were incubated with Ac-DEVD-pNA as described in the “Materials and Methods” for 2 h at 37° C. Absorbance was recorded at 405 nm.
Caspase 3 activity assay: To evaluate caspase 3 activity, cell lysates were prepared after their respective treatments with the compounds. 200 μg of the cell lysates were incubated with 50 μM caspase 3 substrate […] in 100 μl reaction buffer (1% NP-40, […] tris-HCl, pH7.5, 137 mM NaCl, and 10% glycerol) and incubated for 2 h at 37° C. The release of chromophore pNA was monitored spectrophotometrically at 405 nm.

MCF-7 = assay: Apoptosis by PARP cleavage (FACS), MCF-7; conditions: MCF-7, 100 nM, 24 h
Protocol: (§1) FIG. 19: Effect of compound 27 on the apoptosis in cells with different p53 status. Extent of apoptosis in different cells was measured by staining the cells for PARP cleavage followed by FACS analysis. Cells were treated with 100 nM of the compound for 24 h and the level of apoptosis was seen. Percentage apoptotic populations are represented as the M2 gated population.
(§2) PARP Cleavage Assay using Flow Cytometry: Extent of PARP cleavage is determined using polyclonal antibody specifically recognizing the 85 kDa fragment of cleaved PARP (NSB 699 Novus Biologicals) and can be used as a marker for detecting apoptotic cells. Treated cells were fixed with 70% chilled ethanol and permeabilized for 30 min at RT (PBS+0.5% BSA+0.02% NaN3+0.5% saponin) and stained with anti PARP-FITC (10 μl/10^6 cells) for one hour at RT. Cells were washed twice with wash buffer (PBS+1% heat inactivated FBS) and analysed using FACS.

HeLa cells = assay: Apoptosis by PARP cleavage (FACS), HeLa; conditions: 100 nM, 24 h
Protocol: as §1, §2

p65 = assay: Nuclear translocation of p65 by flow cytometry, Jurkat
Protocol: FIG. 5: Effect of CAMVE on TNF or LPS induced nuclear translocation of p65. A. HeLa cells either untreated or pretreated with 15 μM CAMVE for 3 h at 37° C. were stimulated with 0.1 nM TNF and immunocytochemical analysis were performed as described in “Materials and Methods”. B. Jurkat (5×10^5 cells/ml) cells were pretreated with indicated concentrations of CAMVE for 3 h and then stimulated with 0.1 nM of TNF for 30 min or 100 ng/ml of SA-LPS (serum activated LPS) for 15 min. After these treatments, cells were washed twice with PBS and nuclei were isolated by incubating the cells with […] Pipes-Triton buffer for 30 min at 4° C. Nuclei were stained for p65 and analyzed using FACS. (i). Representative histogram overlay showing TNF or LPS stimulated (1), basal (2), CAMVE stimulated (3), p65 staining in the nucleus. (ii). Ordinates gives the Isotype-corrected MFI for various treatments.
The assay was performed as described previously (Blaecke, A., Yves, D., Herbault, N., Jeannin, P., Bonnefoy, J. V., Beck, A., Aubry, J. P. (2002) Cytometry 48, 71-79). Briefly after stimulation, cells were washed twice with PBS. Nucleus was prepared by incubating the cells with 200 ul Pipes-Triton buffer for 30 min at 4° C. […] After washing, the nuclei were incubated with secondary FITC conjugated goat anti-mouse antibody (Sigma) for additional 30 mins at 4° C. and analysed using FACS. […]

With `COc1cc([C@@H]2Oc3c(OC)cc(/C=C/C(=O)O)cc3[C@H]2C(=O)O)ccc1O` [compound 27, 5-[(E)-2-carboxyvinyl]-2β-(4-hydroxy-3-methoxyphenyl)-7-methoxy-2,3-dihydro-1-benzofuran-3α-carboxylic acid] the PARP cleavage (Jurkat cells; 100 nM and 500 nM, increasing with time) was “significant PARP cleavage was achieved at 100 nM and 500 nM”, the “caspase 3 activity (DVED-pNA cleavage)” value (caspase 3) was “dose dependent increase in DVED-pNA cleavage” and the “level of apoptosis (PARP cleavage)” value (MCF-7) was “comparable to that of Jurkat cell line”. The “level of apoptosis (PARP cleavage)” value (HeLa cells) was “significant induction of apoptosis”.
`COC(=O)c1ccc(OC(=O)/C=C/c2ccc(O)c(O)c2)c(OC)c1` [compound 1, Methyl 4-{[(2E)-3-(3,4-dihydroxyphenyl)prop-2-enoyl]oxy}-3-methoxybenzoate] was tested, and the “TNF or LPS mediated p65 translocation” value (p65; Jurkat nuclei, pretreated 3 h, 0.1 nM TNF or 100 ng/ml SA-LPS) was “blocked with CAMVE pretreatments”, the “basal nuclear p65 staining” value (p65; Jurkat, CAMVE alone) was “not altered by incubation with CAMVE alone” and the “TNF induced PARP cleavage (apoptosis)” value (Jurkat cells; pretreated 3 h, TNF 24 h) was “significant potentiation of PARP cleavage in a dose dependent manner”.
